Results published in patent US12440581B2, “Fluorophores for super-resolution imaging” (HOWARD HUGHES MEDICAL INSTITUTE, priority 2019, dated 2025).
Where two headings read alike, the source gives them in different places.

How the values were obtained:
[1] = Quantum yield determination; assay type: physicochemical; conditions: for ϕ (fluorescence quantum yield): absolute, integrating sphere
Description: (§1) Quantum yield determination. All reported absolute fluorescence quantum yield values (Φ) were measured in the laboratory under identical conditions using a Quantaurus-QY spectrometer (model C11374, Hamamatsu). This instrument uses an integrating sphere to determine photons absorbed and emitted by a sample. Measurements were carried out using dilute samples (A<0.1) and self-absorption corrections were performed using the instrument software^57 when appropriate. Reported values are averages (n=3).

[2] = UV-vis and fluorescence spectroscopy; assay type: physicochemical; conditions: for εw / λabs / λem: 10 mM HEPES, pH 7.3; for hypsochromic shift: relative to parent dye (SiR for SiR110; JF549 for JF525)
Description: UV-vis and fluorescence spectroscopy. […] Spectroscopy was performed using 1-cm path length, 3.5-mL quartz cuvettes or 1-cm path length, 1.0-ml quartz microcuvettes (Starna Cells). All measurements were taken at ambient temperature (22±2° C.). Absorption spectra were recorded on a Cary Model 100 spectrometer (Agilent). Fluorescence spectra were recorded on a Cary Eclipse fluorometer (Varian). Maximum absorption wavelength (λabs), extinction coefficient (εw), and maximum emission wavelength (λem) were taken in 10 mM HEPES, pH 7.3 buffer unless otherwise noted; reported values for ew are averages (n=3). Normalized spectra are shown for clarity.

[3] = Determination KL-Z and εmax; assay type: physicochemical; conditions: for εmax: 0.1% TFA in TFE (rhodamine 10), 0.1% TFA in ethanol (Si-rhodamine 8); for KL-Z (lactone-zwitterion equilibrium constant): 1:1 (v/v) dioxane:water, 0.01% triethylamine
Description: Determination KL-Z and εmax. The lactone-zwitterion equilibrium constant (KL-Z) was calculated as described previously^18,41 using equation 1: KL-Z=(εdw/εmax)/(1−εdw/εmax) (1) • where εdw is the extinction coefficient of the dyes in a 1:1 (v/v) dioxane:water solvent mixture containing 0.01% (v/v) triethylamine; the dioxane-water mixture was chosen to give a large range of KL-Z values and the triethylamine additive ensures the rhodamines are in the net neutral form. The emax (maximal extinction coefficient) values were measured in 0.1% (v/v) trifluoroacetic acid (TFA) in 2,2,2-trifluoroethanol (TFE) for rhodaminc 10, and 0.1% (v/v) TFA in ethanol for the Si-rhodamine 8.
Instead, a solution of strong acid in alcoholic solvents was used (e.g., TFA in […]) to shift the equilibrium to the open form by protonation of the o-carboxyl group. This decades-old procedure^36 allows estimation of the maximal extinction coefficient (εmax) and determination of KL-Z=(ε/εmax)/(1−ε/εmax).
The KL-Z was determined using ε values measured in 1:1 dioxane:water to ensure a broad distribution of values.^18 An inverse relationship was observed between KL-Z and fluorogenicity, showing that KL-Z is sufficient to accurately predict the increase in fluorescence of rhodamine dyes. This increase in fluorescence is primarily driven by the increase in absorption; chromogenicity is correlated both with KL-Z and fluorogenicity (FIGS. 11E-11J). Importantly, this trend holds across different rhodamine scaffolds including Si-rhodamines (1-3), carborhodamines (4-5), and classic, oxygen-containing rhodamines (6-7, FIG. 1C). Based on this inverse relationship a simple rubric was determined: a dye with KL-Z<10^−2 should yield a HaloTag ligand with at least 10-fold fluorogenicity (FIG. 1E).

[4] = tested on: histone H2A.Z-HaloTag fusion; test: Comparison of HaloTag ligands 6HTL and 9HTL in live yeast; assay type: cell-based, S. cerevisiae; conditions: 10 nM, 2 h, washed, wide-field fluorescence
Description: Comparison of HaloTag ligands 6HTL and 9HTL. in live yeast. A S. cerevisiae strain expressing a histone H2A.Z-HaloTag fusion under natural promoter control was created; the PDR5 transporter gene was also deleted for improved cellular retention of fluorescent ligands. Cells were grown to early log phase and incubated with either JF552-HaloTag ligand (9HTL; 10 nM) or JF549-HaloTag ligand (6HTL; 10 nM) for 2 h. Free ligand was removed by three washes in culture media and the live cells were imaged by wide-field fluorescence microscopy at ambient temperature.

[5] = Introduction, known dyes; cited from earlier work
[6] = Absorption of dyes 1 and 2 in the presence of laboratory detergents; assay type: physicochemical; conditions: 20 mM sodium phosphate buffer, pH 7.0, 5 mg/mL detergent
Description: FIGS. 11A-11J. FIG. 11A-Absorption at λabs for dyes 1 and 2 in 20 mM sodium phosphate buffer, pH 7.0 containing 5 mg/mL detergent, error bars show±s.e.m. FIGS. 11B and 11C-Absorption spectra for dyes 1 (FIG. 11B) and 2 (FIG. 11C) near λabs in the presence (dashed line) or absence (solid line) of SDS. FIG. 11D—Chemical structures and properties of HaloTag ligands 1HTL-10HTL; ΔA/A0 indicates the change in absorption (ΔA) and ΔF/F0 indicates the change in fluorescence (ΔF) of the HaloTag ligands upon binding purified HaloTag protein divided by the basal absorption or fluorescence of the free ligand (F0 or A0). FIG. 11E—ΔA/A0 of the HaloTag ligands 1HTL-10HTL vs. KL-Z of the corresponding free dyes 1-10; the solid line indicates a linear fit (R^2=0.93). (f) ΔF/F0 vs. ΔA/A0 for the HaloTag ligands 1HTL-10HTL; the solid line indicates a linear fit (R^2=0.87). FIG. 11G—Normalized absorption (abs, solid line), normalized fluorescence excitation (ex, dashed line), and FIG. 11H—normalized fluorescence emission (em) spectra for dye 8 in 10 mM HEPES, pH 7.3.
The mechanism of SiR/JF646 fluorogenicity. […] The interaction between the Si-rhodamine dyes 1 and 2 and SDS was further characterized by measuring the absorption of 1 or 2 vs. [SDS] and observing the absorbance increase only above the critical micelle concentration (c.m.c.) of SDS (FIG. 1C). […]

[7] = Introduction, known dyes; cited from earlier work; remark: listed apart in the source
[8] = Introduction, known dyes, cited from earlier work; for ε (extinction coefficient): free dye in aqueous solution
[9] = tested on: polyA·polyT DNA (DNAAT); test: Quantum yield of 10HST following binding DNA (polyA·polyT); conditions: PBS pH 7.4, with polyA·polyT DNA duplex
Description: as §1
(§2) Measurement of increase in absorbance and fluorescence of 10HST following binding DNA. 10HST (5 μM) was added to phosphate buffered saline (PBS; pH 7.4) containing no DNA (blank), a DNA duplex with sequences 5′-A20-3′ and 5′-T20-3′ (polyA·polyT; i.e., DNAAT; 50 μM; Integrated DNA Technologies), or a DNA duplex with sequences 5′-G20-3′ and 5′-C20-3′ (polyG·polyC; i.e., DNAGC; 50 μM; Integrated DNA Technologies). These solutions were incubated for 2 h at ambient temperature, followed by measurement of absorption spectra. The solutions were then diluted to 500 nM in PBS for measurement of fluorescence spectra or diluted to 1.25 μM in PBS for measurement of quantum yield. Found: 10HST Φ=0.009; 10HST·DNAAT Φ=0.126; 10HST·DNAGC Φ=0.040.

[10] = tested on: polyG·polyC DNA (DNAGC); test: Quantum yield of 10HST following binding DNA (polyG·polyC); conditions: PBS pH 7.4, with polyG·polyC DNA duplex
Description: as §1, §2

| Compound | ϕ (fluorescence quantum yield) [1] | εw [2] | λabs [2] [nm] | λem [2] [nm] | εmax [3] | KL-Z (lactone-zwitterion equilibrium constant) [3] | further results |
| --- | --- | --- | --- | --- | --- | --- | --- |
| CC1(C)c2cc(N3CCC3)ccc2C2(OC(=O)c3ccccc32)c2ccc(N3CCC3)cc21 [dye 4, JF608] | 0.67 | 99,000 M^−1cm^−1 | 608 | 631 | 121,000 M^−1cm^−1 | 0.091 | – |
| O=C1OC2(c3ccc(N4CCC4)cc3Oc3cc(N4CCC4)ccc32)c2ccccc21 [dye 6, JF549] | 0.88 | 101,000 M^−1cm^−1 | 549 | 571 | 134,000 M^−1cm^−1 | 3.5 | – |
| O=C(NCCOCCOCCCCCCCl)c1ccc(C(=O)[O-])c(-c2c3cc(F)c(=[N+]4CCC4)cc-3oc3cc(N4CCC4)c(F)cc23)c1 [9HTL, JF552-HaloTag ligand] | – | – | – | – | – | – | labeling of yeast nuclei (fluorescence signal) [4]: high fluorescence signal |
| O=C(NCCOCCOCCCCCCCl)c1ccc2c(c1)C1(OC2=O)c2ccc(N3CCC3)cc2Oc2cc(N3CCC3)ccc21 [6HTL] | – | – | – | – | – | – | labeling of yeast nuclei (fluorescence signal) [4]: relatively poor labeling |
| Si-Rhodamine 110 [dye 8] | 0.53 | 2,200 M^−1cm^−1 | 587 | 609 | 94,000 M^−1cm^−1 | 0.0043 | hypsochromic shift [2]: ~50 nm |
| CC1(C)c2cc(N3CC(F)(F)C3)ccc2C2(OC(=O)c3ccccc32)c2ccc(N3CC(F)(F)C3)cc21 [dye 5, JF585] | 0.78 | 1,500 M^−1cm^−1 | 585 | 609 | 156,000 M^−1cm^−1 | <0.0001 | – |
| CN(C)c1ccc2c(c1)[Si](C)(C)c1cc(N(C)C)ccc1C21OC(=O)c2ccccc21 [dye 1, tetramethyl-Si-rhodamine] | 0.41 | – | – | – | 141,000 M^−1cm^−1 | 0.0034 | KL-Z [5]: 0.0034; change of absorption with detergents [6]: absorbance increases only in the presence of SDS; Φ (fluorescence quantum yield) [7]: 0.41 |
| C[Si]1(C)c2cc(N3CCC3)ccc2C2(OC(=O)c3ccccc32)c2ccc(N3CCC3)cc21 [dye 2, JF646] | 0.54 | 5,000 M^−1cm^−1 | 646 | 664 | 152,000 M^−1cm^−1 | 0.0012 | KL-Z [5]: 0.0012; λabs [8]: 646 nm; λem [8]: 664 nm; ε (extinction coefficient) [8]: 5,000 M^−1 cm^−1; change of absorption with detergents [6]: absorbance increases only in the presence of SDS; Φ (fluorescence quantum yield) [7]: 0.54 |
| O=C([O-])c1ccccc1-c1c2cc(F)c(=[N+]3CCC3)cc-2oc2cc(N3CCC3)c(F)cc12 [dye 9, Janelia Fluor 552] | 0.83 | 95,000 M^−1cm^−1 | 552 | 575 | 129,000 M^−1cm^−1 | 0.70 | reduction of KL-Z ([3]; relative to JF549): 5 fold |
| JF526-Hoechst [10HST] | – | – | – | – | – | – | Φ ([1]; PBS pH 7.4, no DNA (blank), 1.25 μM): 0.009; Φ [9]: 0.126; Φ [10]: 0.040 |
| O=C1OC2(c3ccc(N4CC(F)(F)C4)cc3Oc3cc(N4CC(F)(F)C4)ccc32)c2ccccc21 [dye 7, JF525] | 0.91 | 94,000 M^−1cm^−1 | 525 | 549 | 122,000 M^−1cm^−1 | 0.068 | hypsochromic shift [2]: ~25 nm |
| C[Si]1(C)c2cc(N3CC(F)C3)ccc2C2(OC(=O)c3ccccc32)c2ccc(N3CC(F)C3)cc21 [dye 3, JF635] | 0.56 | ~400 M⁻¹ cm⁻¹ | 635 | 652 | 167,000 M^−1cm^−1 | <0.0001 | KL-Z [5]: < 0.0001; λabs [8]: 635 nm; λem [8]: 652 nm; ε (extinction coefficient) [8]: 400 M⁻¹ cm⁻¹; Φ (fluorescence quantum yield) [7]: 0.54 |
